The source made the active and inactive calls.
Experiments:
Protein Wnt-3a = Protein Wnt-3a (Mus musculus, UniProt P27467); experiment: Wnt3a-driven reporter signaling inhibition, dose response, selectivity assay for Gli-SUFU antagonist project, Wnt-LIGHT cells, luminescence (AID 651570); format: functional; details: read-out: IC50_Mean;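 further: Wnt-LIGHT reporter cells stimulated with conditioned medium from Wnt3a-producing cells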
[1] = biological target: NAD-dependent protein deacylase sirtuin-5, mitochondrial (Homo sapiens, UniProt Q9NXA8); experiment: SIRT5 desuccinylase inhibitors, dose response, biochemical, fluorescence imaging, cherry-pick, set 5 (AID 720591);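 further: desuccinylation of succinyl peptide AMC substrate read as fluorescence after trypsin release; potency of inhibitors that lower fluorescence and may act on trypsin instead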
[2] = Vero E6 cell cytotoxicity, dose response, cytotoxicity control for non-replicating M. tuberculosis project, secondary assay (AID 492998); format: functional, VeroE6; details: Vero C1008
cells [3] = format: functional
Cytochrome P450 3A4 = Cytochrome P450 3A4 (Homo sapiens, UniProt P08684); details: Potency;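 further: confirmatory qHTS run detecting inhibitors and substrates of CYP3A4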
[4] = P. falciparum Dd2 growth inhibitors, dose response, SYBR Green, cherry-picked samples (AID 1159567); format: functional, cell-based
[5] = HepG2 cell cytotoxicity, dose response, cytotoxicity control, cherry-picked samples (AID 1159577); format: functional, cell-based
[6] = M. tuberculosis H37Rv growth inhibitors, H37Rv strain (AID 1626); format: functional
Paired box protein Pax-8 = Paired box protein Pax-8 (Homo sapiens, UniProt Q06710); experiment: inhibitors of PAX8-driven TPO luciferase reporter, dose response, RMG-I cells, cherry-pick (AID 687027); format: functional, cell-based;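 further: luciferase reporter driven by Pax8 target thyroperoxidase promoter measured by SteadyGlo luminescence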
[7] = biological target: T1, Calpain-2 catalytic subunit (Sus scrofa, UniProt P43367); experiment: pig calpain II inhibitor potency, dose response, biochemical, fluorogenic peptide substrate (AID 1420); format: functional
T1 sequence (P43367 whole entry): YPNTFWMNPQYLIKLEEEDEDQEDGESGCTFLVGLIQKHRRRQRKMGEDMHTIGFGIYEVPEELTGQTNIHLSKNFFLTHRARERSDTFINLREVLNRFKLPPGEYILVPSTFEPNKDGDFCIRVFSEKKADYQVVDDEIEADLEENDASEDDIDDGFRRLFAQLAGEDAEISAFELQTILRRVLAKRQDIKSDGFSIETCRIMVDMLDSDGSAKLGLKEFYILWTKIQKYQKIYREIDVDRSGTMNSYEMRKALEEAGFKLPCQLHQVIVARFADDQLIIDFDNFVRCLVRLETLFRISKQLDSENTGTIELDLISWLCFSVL

[8] = inhibitors of intracellular T. cruzi replication, confirmation, NIH3T3 host cells, beta-gal luminescence (AID 2044); format: functional, cell-based;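 further: intracellular parasites grown in NIH/3T3 mouse fibroblasts as host cells; luminescent beta-galactosidase reporter signal from transgenic T. cruzi replicating inside host cells; inhibitors lower the luminescence signal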
[9] = cytotoxicity toward NIH3T3 fibroblasts, dose response, counter-screen, cell-based, ATP luminescence, mouse fibroblasts (AID 2010); format: functional;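 further: cells exposed to compound for about 90 hours before reading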
cells [10] = experiment: cells
[11] = Luminescence Cell-Based Dose Response to Identify Activators of 5'UTR Stem-Loop Driven Prion Protein mRNA Translation in H4-C Neuroglioblastoma Cells. [Related pubchem assays: 1829 (Project Summary), 1814 (Primary HTS)]; format: functional
[12] = Luminescence Cell-Based Dose Confirmation HTS to Identify Activators of 5'UTR Stem-Loop Driven Alpha-Synuclein mRNA Translation in H4 Neuroglioblastoma Cells. [Related pubchem assays: 1829 (Project Summary), 1814 (Primary HTS)]; format: functional
[13] = Luminescence Cell-Based Dose Response HTS to Identify Activators of Luciferase Translation or Activity in H4 […] Cells. [Related pubchem assays: 1829 (Project Summary), 1814 (Primary HTS)]; format: functional
H4 = experiment: Luminescence Cell-Based Dose Response HTS to Identify Activators of 5'UTR Stem-Loop Driven Prion Protein mRNA Translation in H4 Neuroglioblastoma Cells. [Related pubchem assays: 1829 (Project Summary), 1814 (Primary HTS)]; format: functional; details: Homo sapiens
[14] = Luminescence Cell-Based Dose Response to Identify Activators of Luciferase Translation or Activity in H4-C Neuroglioblastoma Cells. [Related pubchem assays: 1829 (Project Summary), 1814 (Primary HTS)]; format: functional
[15] = Luminescence Cell-Based Dose Confirmation to Identify Activators of 5'UTR Stem-Loop Driven Alpha-Synuclein mRNA Translation in H4 Neuroglioblastoma Cells. [Related pubchem assays: 1829 (Project Summary), 1814 (Primary HTS)]; format: functional
[16] = biological target: T2, Tyrosine-protein phosphatase non-receptor type 7 (Homo sapiens, UniProt P35236); experiment: inhibitors of human HePTP phosphatase, […], biochemical, absorbance, leukemia target (AID 521); format: functional
T2 sequence (P35236 whole entry): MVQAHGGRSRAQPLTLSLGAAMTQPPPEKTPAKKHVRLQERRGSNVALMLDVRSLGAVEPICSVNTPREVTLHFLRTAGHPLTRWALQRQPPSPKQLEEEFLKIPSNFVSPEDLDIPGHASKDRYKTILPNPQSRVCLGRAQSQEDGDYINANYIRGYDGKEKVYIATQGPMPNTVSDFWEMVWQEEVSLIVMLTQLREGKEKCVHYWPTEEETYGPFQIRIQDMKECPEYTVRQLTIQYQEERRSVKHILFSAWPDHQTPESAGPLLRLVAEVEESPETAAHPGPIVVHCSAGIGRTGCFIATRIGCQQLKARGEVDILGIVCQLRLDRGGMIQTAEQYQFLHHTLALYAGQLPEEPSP

[17] = biological target: Voltage-dependent T-type calcium channel subunit alpha-1H (Homo sapiens, UniProt O95180); format: functional;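 further: channel activity triggered by adding a high calcium stimulation buffer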
Sequence of Voltage-dependent T-type calcium channel subunit alpha-1H (O95180 whole entry): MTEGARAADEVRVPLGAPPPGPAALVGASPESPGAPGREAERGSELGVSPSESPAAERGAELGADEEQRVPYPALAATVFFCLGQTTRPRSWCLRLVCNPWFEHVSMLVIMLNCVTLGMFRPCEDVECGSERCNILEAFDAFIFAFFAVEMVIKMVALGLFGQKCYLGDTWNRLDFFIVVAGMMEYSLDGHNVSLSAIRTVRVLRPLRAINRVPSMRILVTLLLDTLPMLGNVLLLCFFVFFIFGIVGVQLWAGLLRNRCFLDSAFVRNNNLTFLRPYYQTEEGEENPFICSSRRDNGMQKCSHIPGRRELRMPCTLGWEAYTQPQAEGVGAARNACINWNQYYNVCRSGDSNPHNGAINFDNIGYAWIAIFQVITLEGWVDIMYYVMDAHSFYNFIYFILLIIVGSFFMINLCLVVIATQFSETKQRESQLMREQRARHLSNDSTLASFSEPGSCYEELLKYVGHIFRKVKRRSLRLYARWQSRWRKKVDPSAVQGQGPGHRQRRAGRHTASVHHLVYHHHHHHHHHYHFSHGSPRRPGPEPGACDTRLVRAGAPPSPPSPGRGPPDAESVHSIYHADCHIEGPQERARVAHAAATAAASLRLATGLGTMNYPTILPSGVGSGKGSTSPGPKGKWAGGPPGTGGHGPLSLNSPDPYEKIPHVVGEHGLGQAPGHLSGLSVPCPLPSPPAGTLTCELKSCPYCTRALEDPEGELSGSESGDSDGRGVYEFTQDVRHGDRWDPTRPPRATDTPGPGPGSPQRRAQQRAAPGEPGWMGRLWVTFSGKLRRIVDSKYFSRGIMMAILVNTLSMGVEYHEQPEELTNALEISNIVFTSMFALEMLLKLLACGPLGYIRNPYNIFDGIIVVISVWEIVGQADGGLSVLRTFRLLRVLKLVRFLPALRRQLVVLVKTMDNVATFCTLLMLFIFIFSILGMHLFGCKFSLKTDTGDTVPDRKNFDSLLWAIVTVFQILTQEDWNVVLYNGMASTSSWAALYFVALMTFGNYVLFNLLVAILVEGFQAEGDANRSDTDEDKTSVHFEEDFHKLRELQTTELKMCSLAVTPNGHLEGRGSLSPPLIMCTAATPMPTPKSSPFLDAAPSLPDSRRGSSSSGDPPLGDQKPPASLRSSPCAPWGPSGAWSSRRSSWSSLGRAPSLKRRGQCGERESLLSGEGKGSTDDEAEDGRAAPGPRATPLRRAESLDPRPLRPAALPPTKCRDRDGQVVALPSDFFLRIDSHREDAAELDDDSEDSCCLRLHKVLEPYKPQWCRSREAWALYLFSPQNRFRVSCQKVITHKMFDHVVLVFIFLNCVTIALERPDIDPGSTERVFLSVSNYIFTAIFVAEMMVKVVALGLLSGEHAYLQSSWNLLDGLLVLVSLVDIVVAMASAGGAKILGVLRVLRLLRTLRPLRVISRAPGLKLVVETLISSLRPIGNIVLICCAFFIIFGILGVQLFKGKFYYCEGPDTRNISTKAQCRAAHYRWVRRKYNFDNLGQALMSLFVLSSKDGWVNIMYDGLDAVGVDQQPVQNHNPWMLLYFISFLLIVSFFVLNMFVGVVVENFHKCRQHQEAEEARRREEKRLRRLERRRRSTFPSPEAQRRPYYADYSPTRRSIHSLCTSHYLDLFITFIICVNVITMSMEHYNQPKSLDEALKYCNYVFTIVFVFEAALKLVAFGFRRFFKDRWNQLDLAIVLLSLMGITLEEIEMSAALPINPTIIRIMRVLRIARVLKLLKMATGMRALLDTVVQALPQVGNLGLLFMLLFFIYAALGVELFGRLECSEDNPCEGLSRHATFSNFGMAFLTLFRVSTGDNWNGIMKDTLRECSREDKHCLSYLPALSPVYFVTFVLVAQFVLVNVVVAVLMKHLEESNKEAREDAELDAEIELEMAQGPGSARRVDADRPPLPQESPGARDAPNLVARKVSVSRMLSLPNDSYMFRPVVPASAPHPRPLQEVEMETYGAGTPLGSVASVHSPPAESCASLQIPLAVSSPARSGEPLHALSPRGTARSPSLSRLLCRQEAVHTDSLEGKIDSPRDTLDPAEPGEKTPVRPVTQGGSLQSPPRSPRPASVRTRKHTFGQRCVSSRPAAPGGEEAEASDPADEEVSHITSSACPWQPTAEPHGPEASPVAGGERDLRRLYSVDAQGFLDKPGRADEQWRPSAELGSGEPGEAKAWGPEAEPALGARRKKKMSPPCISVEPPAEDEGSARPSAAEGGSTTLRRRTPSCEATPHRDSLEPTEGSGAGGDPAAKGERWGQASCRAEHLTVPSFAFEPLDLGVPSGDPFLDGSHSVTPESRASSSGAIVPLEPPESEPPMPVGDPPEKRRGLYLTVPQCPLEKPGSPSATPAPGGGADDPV

Sequence of Cytochrome P450 3A4 (P08684 whole entry): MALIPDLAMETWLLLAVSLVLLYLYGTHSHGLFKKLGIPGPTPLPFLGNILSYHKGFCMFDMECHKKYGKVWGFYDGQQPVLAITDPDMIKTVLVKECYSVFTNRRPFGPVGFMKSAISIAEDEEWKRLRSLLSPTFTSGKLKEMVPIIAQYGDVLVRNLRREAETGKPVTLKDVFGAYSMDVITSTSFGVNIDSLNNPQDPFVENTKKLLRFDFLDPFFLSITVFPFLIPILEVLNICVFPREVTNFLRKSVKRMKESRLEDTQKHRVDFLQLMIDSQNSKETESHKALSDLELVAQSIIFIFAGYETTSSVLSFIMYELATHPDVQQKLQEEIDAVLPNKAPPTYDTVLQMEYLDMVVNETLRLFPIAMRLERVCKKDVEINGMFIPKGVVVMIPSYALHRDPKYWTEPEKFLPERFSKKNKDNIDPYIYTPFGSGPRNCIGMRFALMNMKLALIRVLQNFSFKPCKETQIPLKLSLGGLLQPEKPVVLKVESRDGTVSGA
Sequence of NAD-dependent protein deacylase sirtuin-5, mitochondrial (Q9NXA8 whole entry): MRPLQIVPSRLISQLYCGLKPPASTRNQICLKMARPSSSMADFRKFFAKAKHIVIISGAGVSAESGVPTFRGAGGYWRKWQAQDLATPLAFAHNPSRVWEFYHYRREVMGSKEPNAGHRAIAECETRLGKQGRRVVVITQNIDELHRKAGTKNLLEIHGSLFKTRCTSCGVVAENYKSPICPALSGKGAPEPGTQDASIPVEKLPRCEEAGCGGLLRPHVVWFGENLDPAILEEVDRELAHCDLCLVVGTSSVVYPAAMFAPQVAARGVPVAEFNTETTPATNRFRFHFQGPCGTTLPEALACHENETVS
Sequence of Protein Wnt-3a (P27467 whole entry): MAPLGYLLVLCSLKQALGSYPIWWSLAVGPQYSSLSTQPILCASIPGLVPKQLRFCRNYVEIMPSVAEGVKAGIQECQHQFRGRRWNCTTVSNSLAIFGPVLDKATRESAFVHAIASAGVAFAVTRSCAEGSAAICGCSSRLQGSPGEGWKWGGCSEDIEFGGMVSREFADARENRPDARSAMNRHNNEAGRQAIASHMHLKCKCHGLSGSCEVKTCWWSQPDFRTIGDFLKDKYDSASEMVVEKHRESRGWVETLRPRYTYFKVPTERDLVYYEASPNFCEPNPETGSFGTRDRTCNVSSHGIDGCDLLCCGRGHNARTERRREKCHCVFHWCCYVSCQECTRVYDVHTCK
Sequence of Paired box protein Pax-8 (Q06710 whole entry): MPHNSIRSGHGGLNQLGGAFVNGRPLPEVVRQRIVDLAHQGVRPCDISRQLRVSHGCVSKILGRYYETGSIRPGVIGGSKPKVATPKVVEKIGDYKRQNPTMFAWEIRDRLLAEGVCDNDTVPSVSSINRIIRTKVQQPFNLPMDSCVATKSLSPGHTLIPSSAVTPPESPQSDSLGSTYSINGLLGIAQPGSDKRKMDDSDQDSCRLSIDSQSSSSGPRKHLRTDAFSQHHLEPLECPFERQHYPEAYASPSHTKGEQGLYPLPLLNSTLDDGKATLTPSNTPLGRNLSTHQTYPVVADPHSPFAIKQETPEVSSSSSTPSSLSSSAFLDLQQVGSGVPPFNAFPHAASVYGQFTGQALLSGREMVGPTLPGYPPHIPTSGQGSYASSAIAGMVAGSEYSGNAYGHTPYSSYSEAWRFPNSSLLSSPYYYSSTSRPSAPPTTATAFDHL

Compound: CCOC(=O)N1CCN(C(=O)c2cc(COc3ccc4ncccc4c3)on2)CC1
- IC50 (Protein Wnt-3a): 0.555 µM (active)
- AC50 [1]: > 30 µM (inactive)

Compound: COc1ccccc1NC(=O)/C(O)=C/C(=O)c1ccccc1
- CC50 [2]: > 20 µM (active)
- IC50 (cells [3]): 32 µM (active)

Compound: COC(=O)CC1C(C)(C)C2(O)OC34CC2C(=O)[C@@]1(C)C3CC[C@]1(C)C4=CC(=O)OC1c1ccoc1 (some centres not stated)
- AC50 (Cytochrome P450 3A4): 3.16 µM (inconclusive)

Compound: Oc1ccc2c(c1)OCC1c3cc4c(cc3OC21)OCO4 (configuration not stated)
- AC50 (Cytochrome P450 3A4): 39.8 µM (inconclusive)

Compound: COc1ccc(C#Cc2ccc([C@@H]3[C@@H](CO)N4CCCCN(Cc5ccccc5F)C[C@H]34)cc2)cc1
- AC50 [4]: 0.807 µM (active)
- AC50 [5]: 7.91 µM (active)

Compound: C=C1C2(C(=O)Nc3ccc(SC(F)F)cc3)CCC(C2)C1(C)C (configuration not stated)
- IC50 [6]: > 100 µM (active)
- AC50 (Paired box protein Pax-8): 62.8 µM (active)

Compound: COc1ccc(N2Cc3ccccc3C2)cc1Cl
- IC50 [6]: > 100 µM (active)

Compound: O=C(Nc1cccnc1)c1cc2cc(Br)ccc2oc1=O
- IC50 [6]: > 100 µM (active)
- IC50 [7]: 17.6 µM (not active)

Compound: C(=C\c1ccccc1)/CN1CCN(Cc2ccc3c(c2)OCCO3)CC1
- EC50 [8]: < 0.1 µM (active)
- EC50 [9]: > 60 µM (not active)
- EC50 (cells [10]): 0.053 µM (active)

Compound: CC1CCc2c(sc(NC(=O)Cn3cnc([N+](=O)[O-])n3)c2C(N)=O)C1 (configuration not stated)
- EC50 [8]: < 0.1 µM (active)
- EC50 [9]: > 30 µM (not active)
- EC50 (cells [10]): 0.102 µM (active)

Compound: CC(C)c1ccc(C(=O)NN2C(=O)C3CCCCC3C2=O)cc1 (configuration not stated)
- EC50 [11]: 1.21 µM (active)
- EC50 [12]: < 0.1 µM (active)
- EC50 [13]: 0.118 µM (active)
- EC50 (H4): 28.8 µM (active)
- EC50 [14]: 1.48 µM (active)
- EC50 [15]: 1.33 µM (active)

Compound: O=C(CCCn1c(=S)[nH]c2ccsc2c1=O)NCc1ccco1
- IC50 [16]: > 100 µM (not active)

Compound: COc1ccccc1NC(=O)N1CCc2[nH]c3ccc(Cl)cc3c2C1
- EC50 [17]: 11.4 µM (active)

Reference: ChEMBL document CHEMBL1201862, “PubChem BioAssay data set” (2004)
